Our source for the IC50 values is US12528784B2, “Alkynyl-(heteroaryl)-carboxamide HCN1 inhibitors” (Hoffmann-La Roche Inc., priority 2019, dated 2026).

Assay [1] addresses T1, HCN2 (Homo sapiens, UniProt Q9UL51).
T1 construct: expressed in transfected cells
T1 sequence (Q9UL51 1-889): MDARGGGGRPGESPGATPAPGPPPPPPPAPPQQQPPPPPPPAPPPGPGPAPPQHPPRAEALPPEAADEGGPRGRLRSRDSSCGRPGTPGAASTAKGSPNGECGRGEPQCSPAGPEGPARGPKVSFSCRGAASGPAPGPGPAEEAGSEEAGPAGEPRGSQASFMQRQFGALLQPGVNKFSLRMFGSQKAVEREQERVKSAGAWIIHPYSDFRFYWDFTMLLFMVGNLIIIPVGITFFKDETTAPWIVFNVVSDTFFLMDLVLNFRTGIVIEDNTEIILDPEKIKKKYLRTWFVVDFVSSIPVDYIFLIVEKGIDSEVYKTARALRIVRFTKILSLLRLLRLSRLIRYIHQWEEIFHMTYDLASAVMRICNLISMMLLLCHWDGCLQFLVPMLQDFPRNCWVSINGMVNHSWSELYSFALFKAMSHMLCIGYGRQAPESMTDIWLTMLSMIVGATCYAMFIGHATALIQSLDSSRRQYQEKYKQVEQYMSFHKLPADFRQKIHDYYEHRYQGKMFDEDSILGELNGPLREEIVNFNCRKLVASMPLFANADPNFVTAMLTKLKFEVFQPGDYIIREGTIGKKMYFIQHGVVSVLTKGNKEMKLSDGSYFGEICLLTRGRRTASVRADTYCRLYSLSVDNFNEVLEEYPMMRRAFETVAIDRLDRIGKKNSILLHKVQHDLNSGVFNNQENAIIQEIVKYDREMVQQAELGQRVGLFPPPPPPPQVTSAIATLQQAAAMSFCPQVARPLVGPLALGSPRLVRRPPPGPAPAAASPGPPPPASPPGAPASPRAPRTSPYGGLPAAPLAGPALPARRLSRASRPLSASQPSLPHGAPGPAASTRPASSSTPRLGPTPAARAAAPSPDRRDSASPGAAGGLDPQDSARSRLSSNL
The assay is described as follows: HCN2 automated patch clamp current inhibition assay (Ionworks Barracuda). It counts as cell-based. As to conditions: HEK-293 cells stably expressing HCN2; current inhibition during a hyperpolarizing pulse of -100 mV. Here is the method: (§1) In vitro, high-throughput cellular electrophysiology was employed to detect voltage- and use-dependence of compounds in single concentration screening and IC50 determination for library and medicinal chemistry profiling compounds in 384 well plates.
(§2) Cell cultures were maintained in DMEM/F12 cell growth media containing FBS and appropriate antibiotics at 37° C., 5% CO2 for a maximum of 20 passages. At a time point of 40-72 hours prior to assay, the expression of HCN protein in the cells is induced by addition of tetracyclin. Cells may be incubated at 27° C. for 2-24 hours of induction. […] Cells were harvested at 80% confluency and resuspended in extracellular buffer and added to wells. A freshly prepared Escin solution was added to intracellular buffer and applied to establish whole cell recording via perforated patch clampling by APC.
(§3) Currents through activated channels were measured directly by APC by employing hyperpolarizing voltage steps. The activation window was increased and stabilized by the addition of cell permeable Br-cAMP. Baselines were established for both use- and voltage-dependence protocols using a −30 mV holding potential and multiple test pulses at −100 mV or by 20 mV steps from −120 to 0 mV, respectively. Test compounds were added after baseline recordings followed by a 10 min incubation, voltage-dependency protocol recording, and use-dependency recording. Data was corrected for baseline and rundown (well based) and normalized for % inhibition (plate based). Five previously reported HCN inhibitors of varying potencies and selectivities and zatebradine were used for run to run and plate to plate quality controls. […] Percent inhibition was analysed at −80, −100, −120 mV of the voltage-dependency protocol and at pulse 0 and 50 of the use-dependency protocols. Selectivity was assessed against HCN2, HCN3, and HCN4 overexpressing cell lines using similar methods. As HCN4 has a slower activation than the other HCN channels, activation was extended to achieve steady state activation.
Background: The patch-clamp technique gives a direct electrical read-out from membranes.

In assay [2] the target is T2, HCN3 (Homo sapiens, UniProt Q9P1Z3).
T2 construct: expressed in transfected cells
T2 sequence (Q9P1Z3 1-774): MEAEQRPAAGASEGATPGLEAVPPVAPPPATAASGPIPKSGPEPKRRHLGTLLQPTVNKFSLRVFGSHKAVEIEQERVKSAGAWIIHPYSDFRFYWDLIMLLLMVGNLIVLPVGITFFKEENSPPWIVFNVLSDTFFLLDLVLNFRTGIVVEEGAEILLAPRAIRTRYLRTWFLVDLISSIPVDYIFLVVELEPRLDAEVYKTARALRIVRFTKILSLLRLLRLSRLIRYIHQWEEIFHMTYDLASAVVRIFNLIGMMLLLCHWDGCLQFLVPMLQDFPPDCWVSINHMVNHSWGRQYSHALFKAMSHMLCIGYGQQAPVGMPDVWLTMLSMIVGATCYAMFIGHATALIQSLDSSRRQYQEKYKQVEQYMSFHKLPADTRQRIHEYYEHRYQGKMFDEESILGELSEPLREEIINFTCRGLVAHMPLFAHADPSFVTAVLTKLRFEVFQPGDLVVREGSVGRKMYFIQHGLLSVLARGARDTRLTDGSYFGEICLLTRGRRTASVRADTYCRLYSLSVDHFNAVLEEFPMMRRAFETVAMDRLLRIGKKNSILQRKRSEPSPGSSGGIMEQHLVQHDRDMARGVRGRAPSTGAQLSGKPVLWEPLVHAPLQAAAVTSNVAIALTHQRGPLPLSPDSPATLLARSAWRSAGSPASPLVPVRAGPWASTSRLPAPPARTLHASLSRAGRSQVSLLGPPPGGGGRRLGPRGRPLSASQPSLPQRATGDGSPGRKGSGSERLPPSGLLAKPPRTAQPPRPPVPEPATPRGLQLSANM
Kind of assay: HCN3 automated patch clamp current inhibition assay (Ionworks Barracuda). As to conditions: HEK-293 cells stably expressing HCN3; current inhibition during a hyperpolarizing pulse of -100 mV. It counts as cell-based. Here is the method:
as §1, §2, §3

Regarding `Cc1ccc(-n2c(C(N)=O)nc(C#Cc3ccnc(Cl)c3C)c2C)cn1` [Example 1, 4-((2-Chloro-3-methylpyridin-4-yl)ethynyl)-5-methyl-1-(6-methylpyridin-3-yl)-1H-imidazole-2-carboxamide], the IC50 in assay [1] and in assay [2] was greater than 40 µM throughout.
Turning to `Cc1ccc(-n2c(C(N)=O)nc(C#Cc3ccnc(Cl)c3F)c2C)cn1` [Example 2, 4-((2-Chloro-3-fluoropyridin-4-yl)ethynyl)-5-methyl-1-(6-methylpyridin-3-yl)-1H-imidazole-2-carboxamide], the IC50 in assay [1] and in assay [2] was greater than 40 µM in each case.
Turning to `Cc1ccc(-n2c(C(N)=O)nc(C#Cc3csc(Cl)c3)c2C)cn1` [Example 3, 4-[2-(5-Chlorothiophen-3-yl)ethynyl]-5-methyl-1-(6-methylpyridin-3-yl)imidazole-2-carboxamide], the IC50 was greater than 40 µM in assay [1] and 25.7 µM in assay [2].
On the same counts, the results for `Cc1ccc(-n2c(C(N)=O)nc(C#Cc3cccc(Cl)c3)c2C)cn1` [Example 4, 4-[2-(3-Chlorophenyl)ethynyl]-5-methyl-1-(6-methyl-3-pyridyl)imidazole-2-carboxamide] are 30.6 µM and 32.8 µM.
In the case of `Cc1ccc(-n2c(C(N)=O)nc(C#Cc3cccc(C#N)c3)c2C)cn1` [Example 5, 4-((3-Cyanophenyl)ethynyl)-5-methyl-1-(6-methylpyridin-3-yl)-1H-imidazole-2-carboxamide], the IC50 in assay [1] and in assay [2] was greater than 40 µM each time.
For `Cc1ccc(-n2c(C(N)=O)nc(C#Cc3ccnc(Cl)c3)c2C)cn1` [Example 6, 4-(2-Chloro-pyridin-4-ylethynyl)-5-methyl-1-(6-methyl-pyridin-3-yl)-1H-imidazole-2-carboxylic Acid Amide], the IC50 in assay [1] and in assay [2] was greater than 40 µM in each case.
Regarding `COc1cccc(C#Cc2nc(C(N)=O)n(-c3ccc(C)nc3)c2C)c1` [Example 8, 4-((3-Methoxyphenyl)ethynyl)-5-methyl-1-(6-methylpyridin-3-yl)-1H-imidazole-2-carboxamide], the IC50 in assay [1] was greater than 40 µM; in assay [2], 36.4 µM.
As for `Cc1cccc(C#Cc2nc(C(N)=O)n(-c3ccc(C)nc3)c2C)c1` [Example 10, 5-Methyl-1-(6-methylpyridin-3-yl)-4-(m-tolylethynyl)-1H-imidazole-2-carboxamide], the IC50 in assay [1] and in assay [2] was greater than 40 µM each time.
As to `Cc1cnc(-n2c(C(N)=O)nc(C#Cc3ccnc(Cl)c3C)c2C)cn1` [Example 23, 4-[2-(2-Chloro-3-methyl-4-pyridyl)ethynyl]-5-methyl-1-(5-methylpyrazin-2-yl)imidazole-2-carboxamide], the concentration for half-maximal inhibition (IC50) in assay [1] was greater than 40 µM; in assay [2], 2.4 µM.
For `Cc1c(C#Cc2nc(C(N)=O)n(-c3ccc(Cl)nc3)c2C)ccnc1Cl` [Example 26, 4-[2-(2-Chloro-3-methyl-4-pyridyl)ethynyl]-1-(6-chloro-3-pyridyl)-5-methyl-imidazole-2-carboxamide] the same measures were greater than 40 µM and greater than 40 µM.
On the same counts, the results for `COc1ccc(-n2c(C(N)=O)nc(C#Cc3ccnc(Cl)c3C)c2C)cn1` [Example 27, 4-[2-(2-Chloro-3-methyl-4-pyridyl)ethynyl]-1-(6-methoxy-3-pyridyl)-5-methyl-imidazole-2-carboxamide] are greater than 40 µM and 38.4 µM.
For `Cc1ccc(-n2c(C(N)=O)nc(C#Cc3ccnc(Cl)c3C)c2C)nc1` [Example 28, 4-[2-(2-Chloro-3-methyl-4-pyridyl)ethynyl]-5-methyl-1-(5-methyl-2-pyridyl)imidazole-2-carboxamide] the same measures were greater than 40 µM and greater than 40 µM.
`Cc1ccc(-n2c(C(N)=O)cc(C#Cc3ccnc(Cl)c3)c2C)cn1` [Example 31, 4-[2-(2-Chloro-4-pyridyl)ethynyl]-5-methyl-1-(6-methyl-3-pyridyl)pyrrole-2-carboxamide]: the IC50 in assay [1] was greater than 40 µM; in assay [2], 23.5 µM.
On the same counts, the results for `Cc1ccc(-c2c(C(N)=O)nc(C#Cc3ccnc(Cl)c3)n2C)cn1` [Example 32, 2-[2-(2-Chloro-4-pyridyl)ethynyl]-1-methyl-5-(6-methyl-3-pyridyl)imidazole-4-carboxamide] are greater than 40 µM and greater than 40 µM.
For `Cc1ccc(-n2c(C(N)=O)nc(C#Cc3ccnc(Cl)c3)c2C)cc1` [Example 38, 4-[2-(2-Chloro-4-pyridyl)ethynyl]-5-methyl-1-(p-tolyl)imidazole-2-carboxamide] the same measures were greater than 40 µM and greater than 40 µM.
On the same counts, the results for `Cc1c(C#Cc2ccnc(Cl)c2)nc(C(N)=O)n1-c1ccc(Cl)cc1` [Example 39, 1-(4-Chlorophenyl)-4-((2-chloropyridin-4-yl)ethynyl)-5-methyl-1H-imidazole-2-carboxamide] are greater than 40 µM and greater than 40 µM.
For the molecule `NC(=O)c1nc(C#Cc2ccnc(Cl)c2)cn1-c1ccc(F)cc1` [Example 42, 4-(2-Chloro-pyridin-4-ylethynyl)-1-(4-fluoro-phenyl)-1H-imidazole-2-carboxylic Acid Amide], the IC50 in assay [1] and in assay [2] was greater than 40 µM each time.

As usually defined, the IC50 is the point on the concentration scale where inhibition reaches its midpoint. Lower therefore signals inhibition by little substance.
